Assay results: paper PMC13198257, “An aerosolized dual-action autotaxin inhibitor-PPARγ agonist for the treatment of pulmonary fibrosis” (Cell Reports Medicine, 2026)

Test system: lung gene expression
Assay: RNA sequencing of lung tissue (BLM/EL244 vs BLM)
Format: in vivo, mouse
Protocol: RNA quality was assessed using an Agilent TapeStation 4150 with the High Sensitivity […] ScreenTape (Agilent), according to the manufacturer’s protocols. For library preparation, the QuantSeq 3’mRNA-Seq Library Prep Kit (Lexogen) was used according to manufacturer’s instructions. Briefly, 500 ng of RNA from each sample was used for first-strand synthesis, followed by RNA template removal, and second-strand synthesis initiated by random primers. In-line barcodes were introduced at this step, and this was followed by magnetic bead-based purification. The resulting libraries were amplified for 15 cycles and re-purified, with quantity and quality assessed on a Qubit 4 Fluorometer with the Invitrogen Qubit dsDNA HS Assay and an Agilent Tapestation 4150 with the High Sensitivity D1000 assay kit, respectively. The quantified libraries were pooled equimolarly; 50ng of total library mix was used for Adapter Conversion PCR Amplification using the Universal Library Conversion Kit (App-A), Version: V1.0 (MGI Tech Co., Ltd.), according to the manufacturer’s instructions.
The quantity and quality of the purified adapter conversion PCR (AC-PCR) product were evaluated on a Qubit 4 Fluorometer with the Invitrogen Qubit dsDNA HS Assay and on an Agilent Tapestation 4150 with the High Sensitivity D1000 assay kit, respectively. This was followed by DNA denaturation, Single-Strand Circularisation, Enzymatic Digestion, Enzymatic Digestion Product Cleanup and Quality Control steps on 1 pmol of AC-PCR product, according to the Universal Library Conversion Kit (App-A) User Manual (Version: A3).
Finally, 60 fmol of ssCirDNA were used for DNB preparation and sequencing on a DNBSEQ-G400 platform at the BSRC Alexander Fleming Genomics Facility, using a G400 App-A FCS SE100 High-throughput Sequencing Set (MGI Tech Co., Ltd.), according to the manufacturer’s instructions.
Alignment of the FASTQ files was performed against the mouse genome build mm10 using a custom Bash script.[143] Read counting on the 3′ UTRs and differential expression analysis were conducted using the metaseqR2 bioconductor package.[144] Genes corresponding to the following biotypes were excluded: polymorphic_pseudogene, processed_transcript, pseudogene, IG_V_pseudogene, misc_RNA, IG_C_gene, IG_J_gene, IG_D_gene, IG_LV_gene, TR_V_gene, TR_V_pseudogene, TEC, and processed_pseudogene. Gene counts were normalized with DESEQ[145] through metaseqR2. Genes with more than 10 counts in at least 50% of the samples were kept for further processing. For differential expression analysis, the PANDORA algorithm[146] was used to estimate a meta p-value integrating the results from the DESEQ, DESEQ2,[147] edgeR,[148] limma,[149] NBPSeq,[150] and NOISeq[151] algorithms. All additional parameters were set to default values.
Pathway enrichment analysis was performed for the Gene Ontology Biological process (BP) and Molecular Function (MF) terms through GeneCodis 4.[152] The volcano plots, scatterplots, Venn diagrams, and dot plots were generated using the ggplot2 Bioconductor package.

O=C1NC(=O)C(Cc2ccc(OCCC3CCN(C(=O)OCc4cc(Cl)cc(Cl)c4)CC3)cc2)S1 (stereo not drawn) [EL244, 3,5-dichlorobenzyl 4-(2-(4-((2,4-dioxothiazolidin-5-yl)methyl)phenoxy)ethyl)piperidine-1-carboxylate]
log2 nFC BLM/EL244 vs BLM (DEG Ccl9): -1.37 | log2 nFC BLM/EL244 vs BLM (DEG Ccnb1): -2.41 | Cd300lg log2 nFC BLM/EL244 vs BLM (DEG Cd300lg, nFC: normalised fold change): 1.18 | log2 nFC BLM/EL244 vs BLM (DEG Cdc20): -1.58 | log2 nFC BLM/EL244 vs BLM (DEG Cdca2): -1.33 | log2 nFC BLM/EL244 vs BLM (DEG Cenpa): -1.31 | log2 nFC BLM/EL244 vs BLM (DEG Cenpk): -1.51 | log2 nFC BLM/EL244 vs BLM (DEG Cenpw): -1.33 | Cep85l log2 nFC BLM/EL244 vs BLM (DEG Cep85l, nFC: normalised fold change): 1.02 | log2 nFC BLM/EL244 vs BLM (DEG Cercam): -1.37 | Cfap100 log2 nFC BLM/EL244 vs BLM (DEG Cfap100, nFC: normalised fold change): 0.89 | Cfap206 log2 nFC BLM/EL244 vs BLM (DEG Cfap206, nFC: normalised fold change): 0.77 | Cftr log2 nFC BLM/EL244 vs BLM (DEG Cftr, nFC: normalised fold change): 0.96 | Chia1 log2 nFC BLM/EL244 vs BLM (DEG Chia1, nFC: normalised fold change): 1.16 | Chrdl1 log2 nFC BLM/EL244 vs BLM (DEG Chrdl1, nFC: normalised fold change): 1.39 | log2 nFC BLM/EL244 vs BLM (DEG Chsy3): -1.56 | Cidec log2 nFC BLM/EL244 vs BLM (DEG Cidec, nFC: normalised fold change): 1.57 | log2 nFC BLM/EL244 vs BLM (DEG Cilp): -1.39 | log2 nFC BLM/EL244 vs BLM (DEG Ckap2): -2.44 | Ckm log2 nFC BLM/EL244 vs BLM (DEG Ckm, nFC: normalised fold change): 2.32 | Ckmt2 log2 nFC BLM/EL244 vs BLM (DEG Ckmt2, nFC: normalised fold change): 2.73 | log2 nFC BLM/EL244 vs BLM (DEG Cks1b): -1.54 | Cldn5 log2 nFC BLM/EL244 vs BLM (DEG Cldn5, nFC: normalised fold change): 0.97 | log2 nFC BLM/EL244 vs BLM (DEG Clec4a2): -1.26 | log2 nFC BLM/EL244 vs BLM (DEG Clec4n): -1.39 | log2 nFC BLM/EL244 vs BLM (DEG Col1a2): -1.41 | log2 nFC BLM/EL244 vs BLM (DEG Col3a1): -1.54 | log2 nFC BLM/EL244 vs BLM (DEG Col5a1): -1.52 | log2 nFC BLM/EL244 vs BLM (DEG Col5a2): -1.48 | log2 nFC BLM/EL244 vs BLM (DEG Col5a3): -1.53 | Colq log2 nFC BLM/EL244 vs BLM (DEG Colq, nFC: normalised fold change): 1.81 | Cox6a2 log2 nFC BLM/EL244 vs BLM (DEG Cox6a2, nFC: normalised fold change): 1.42 | Crebl2 log2 nFC BLM/EL244 vs BLM (DEG Crebl2, nFC: normalised fold change): 0.79 | Crispld2 log2 nFC BLM/EL244 vs BLM (DEG Crispld2, nFC: normalised fold change): 0.80 | Cry2 log2 nFC BLM/EL244 vs BLM (DEG Cry2, nFC: normalised fold change): 0.70 | Csf3r log2 nFC BLM/EL244 vs BLM (DEG Csf3r, nFC: normalised fold change): 1.69 | Csrnp1 log2 nFC BLM/EL244 vs BLM (DEG Csrnp1, nFC: normalised fold change): 0.83 | Csrp3 log2 nFC BLM/EL244 vs BLM (DEG Csrp3, nFC: normalised fold change): 2.07 | Cst8 log2 nFC BLM/EL244 vs BLM (DEG Cst8, nFC: normalised fold change): 1.41 | Ctla2a log2 nFC BLM/EL244 vs BLM (DEG Ctla2a, nFC: normalised fold change): 0.72 | Ctla2b log2 nFC BLM/EL244 vs BLM (DEG Ctla2b, nFC: normalised fold change): 0.96 | log2 nFC BLM/EL244 vs BLM (DEG Cxcl13): -1.42 | Cxcr2 log2 nFC BLM/EL244 vs BLM (DEG Cxcr2, nFC: normalised fold change): 1.19 | Cyp2a5 log2 nFC BLM/EL244 vs BLM (DEG Cyp2a5, nFC: normalised fold change): 1.66 | Cyp2d22 log2 nFC BLM/EL244 vs BLM (DEG Cyp2d22, nFC: normalised fold change): 0.97 | Cyp2f2 log2 nFC BLM/EL244 vs BLM (DEG Cyp2f2, nFC: normalised fold change): 0.79 | Cyp4b1 log2 nFC BLM/EL244 vs BLM (DEG Cyp4b1, nFC: normalised fold change): 1.18 | log2 nFC BLM/EL244 vs BLM (DEG Cyp7b1): -1.41 | Cytl1 log2 nFC BLM/EL244 vs BLM (DEG Cytl1, nFC: normalised fold change): 1.67 | D630024D03Rik log2 nFC BLM/EL244 vs BLM (DEG D630024D03Rik, nFC: normalised fold change): 1.60 | Dgkh log2 nFC BLM/EL244 vs BLM (DEG Dgkh, nFC: normalised fold change): 0.84 | Dnali1 log2 nFC BLM/EL244 vs BLM (DEG Dnali1, nFC: normalised fold change): 0.73 | log2 nFC BLM/EL244 vs BLM (DEG Dok2): -1.37 | Dpep1 log2 nFC BLM/EL244 vs BLM (DEG Dpep1, nFC: normalised fold change): 0.71 | Dpysl5 log2 nFC BLM/EL244 vs BLM (DEG Dpysl5, nFC: normalised fold change): 1.90 | Dusp1 log2 nFC BLM/EL244 vs BLM (DEG Dusp1, nFC: normalised fold change): 0.86 | log2 nFC BLM/EL244 vs BLM (DEG E2f8): -1.57
